Laboratory results as given in PubChem BioAssay AID330 (DTP/NCI, 2004).
“And” between values parts separate entries of the source, which are not always exact repeats. Identical values can stand only once. Inconclusive results and toxic doses are left out.

System: P388 leukemia ip, CD2F1 mice, survival T/C
Assay: NCI In Vivo Anticancer Drug Screen. Data for tumor model P388 Leukemia (intraperitoneal) in CD2F1 (CDF1) mice
Conditions: endpoint: median survival time, higher = longer survival
Method in brief: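 Mice carrying the transplanted tumor received test compound or vehicle. Survival was recorded in each group, and the value is the treated-group measurement divided by that of the vehicle-treated control group.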

[1] = dose: 50.0 mg/kg/injection, schedule: Q01DX005 (ip), vehicle: saline with Tween-80
[2] = dose: 100.0 mg/kg/injection, schedule: Q01DX005 (ip), vehicle: saline with Tween-80
[3] = dose: 200.0 mg/kg/injection, schedule: Q01DX005 (ip), vehicle: saline with Tween-80
[4] = dose: 50.0 mg/kg/injection, schedule: Q01DX009 (ip), vehicle: saline with Tween-80
[5] = dose: 100.0 mg/kg/injection, schedule: Q01DX009 (ip), vehicle: saline with Tween-80
[6] = dose: 200.0 mg/kg/injection, schedule: Q01DX009 (ip), vehicle: saline with Tween-80
[7] = dose: 100.0 mg/kg/injection, schedule: Q04DX003 (ip), vehicle: saline with Tween-80
[8] = dose: 200.0 mg/kg/injection, schedule: Q04DX003 (ip), vehicle: saline with Tween-80
[9] = dose: 400.0 mg/kg/injection, schedule: Q04DX003 (ip), vehicle: saline with Tween-80
[10] = dose: 60.0 mg/kg/injection, schedule: Q01DX005 (ip), vehicle: Klucel (hydroxypropylcellulose) (HPC)
[11] = dose: 120.0 mg/kg/injection, schedule: Q01DX005 (ip), vehicle: Klucel (hydroxypropylcellulose) (HPC)
[12] = dose: 240.0 mg/kg/injection, schedule: Q01DX005 (ip), vehicle: Klucel (hydroxypropylcellulose) (HPC)

`CCC1c2ccccc2[C@H]2C(c3ccccc3)=NN(c3ccccc3)[C@H]2N1CC` (some centres not stated) was tested, and the T/C [1] was 100 % of control, the T/C [2] was 92 % of control and the T/C [3] was 90 % of control.
For `Oc1ccc(C2c3ccccc3Oc3ccccc32)cc1`, the T/C [4] was 101 % of control, the T/C [5] was 111 % of control and the T/C [6] was 118 % of control.
With `Cc1cccc(C)c1OCc1nnc(SCC(=O)O)n1-c1c(C)cccc1C` the T/C (dose: 50.0 mg/kg/injection, schedule: Q01DX005 (ip), vehicle: Klucel (hydroxypropylcellulose) (HPC)) was 102 % of control, the T/C (dose: 100.0 mg/kg/injection, schedule: Q01DX005 (ip), vehicle: Klucel (hydroxypropylcellulose) (HPC)) was 99 % of control and the T/C (dose: 200.0 mg/kg/injection, schedule: Q01DX005 (ip), vehicle: Klucel (hydroxypropylcellulose) (HPC)) was 93 % of control.
With `C/C(=N\NC(N)=Nc1ccc(Cl)cc1)c1ccc2c(c1)Cc1ccccc1-2` the T/C (dose: 100.0 mg/kg/injection, schedule: Q04DX002 (ip), vehicle: saline with Tween-80) was 104 % of control, the T/C (dose: 200.0 mg/kg/injection, schedule: Q04DX002 (ip), vehicle: saline with Tween-80) was 111 % of control and the T/C (dose: 400.0 mg/kg/injection, schedule: Q04DX002 (ip), vehicle: saline with Tween-80) was 114 % of control.
With `O=C1OCC/C1=C1/NC2CCCCC2NC1=O` (configuration not stated) the T/C [4] was 94 % of control and the T/C [5] was 94 % of control.
`OC1(C2(O)CCCC2)CCCC1` was tested, and the T/C [7] was 100 % of control, the T/C [8] was 104 % of control and the T/C [9] was 95 % of control.
For `CN(C)C1=NC(N(C)C)=C2C=CC=C12`, the T/C (dose: 15.0 mg/kg/injection, schedule: Q01DX005 (ip), vehicle: Klucel (hydroxypropylcellulose) (HPC)) was 103 % of control, the T/C (dose: 30.0 mg/kg/injection, schedule: Q01DX005 (ip), vehicle: Klucel (hydroxypropylcellulose) (HPC)) was 97 % of control and the T/C [10] was 96 % of control.
For `NC1=C(O)C(=O)C(c2c3ccccc3cc3ccccc23)O1` (configuration not stated), the T/C [10] was 94 % of control, the T/C [11] was 108 % of control and the T/C [12] was 86 % of control.
With `Nc1ccnc(N)c1N=O` the T/C [7] was 103 % of control, the T/C [8] was 99 % of control and the T/C [9] was 97 % of control.
In the case of `CN1C(NN)=NS(=O)(=O)c2ccccc21`, the T/C (dose: 60.0 mg/kg/injection, schedule: Q01DX005 (ip), vehicle: saline with Tween-80) is reported as 106 % of control, the T/C (dose: 120.0 mg/kg/injection, schedule: Q01DX005 (ip), vehicle: saline with Tween-80) is reported as 103 % of control and the T/C (dose: 240.0 mg/kg/injection, schedule: Q01DX005 (ip), vehicle: saline with Tween-80) is reported as 106 % of control.
`O=C1Nc2ccccc2C(=O)C1(Cc1ccccc1)C(=O)c1ccccc1` (configuration not stated) was tested, and the T/C [10] was 99 % of control, the T/C [11] was 105 % of control and the T/C [12] was 97 % of control.
In the case of `CCCCCCCCOC(=O)c1ccc(I)cc1`, the T/C [4] is reported as 97 % of control, the T/C [5] is reported as 101 % of control and the T/C [6] is reported as 97 % of control.
With `CCCCCCCCCCCCn1cc[n+](CC(=O)N(O)Cc2ccccc2)c1C` the T/C (dose: 1.56 mg/kg/injection, schedule: Q01DX005 (ip), vehicle: saline with Tween-80) was 93 % of control, the T/C (dose: 3.12 mg/kg/injection, schedule: Q01DX005 (ip), vehicle: saline with Tween-80) was 90 % of control and the T/C (dose: 6.25 mg/kg/injection, schedule: Q01DX005 (ip), vehicle: saline with Tween-80) was 86 % of control.
With `NNC(=O)CCCCCCCCCCCCCCCO` the T/C (dose: 12.5 mg/kg/injection, schedule: Q01DX009 (ip), vehicle: saline with Tween-80) was 97 % of control, the T/C (dose: 25.0 mg/kg/injection, schedule: Q01DX009 (ip), vehicle: saline with Tween-80) was 88 % of control and the T/C [4] was 88 % of control.
For `O=C(NC1c2ccccc2Oc2ccccc21)c1ccc([N+](=O)[O-])cc1`, the T/C [1] was 102 % of control, the T/C [2] was 93 % of control and the T/C [3] was 91 % of control.
With `CC(=O)Nc1ccc(/C=C2\C(=O)Nc3ccccc32)cc1` the T/C (dose: 50.0 mg/kg/injection, schedule: Q01DX009 (ip), vehicle: Klucel (hydroxypropylcellulose) (HPC)) was 99 % of control and 91 % of control, the T/C (dose: 100.0 mg/kg/injection, schedule: Q01DX009 (ip), vehicle: Klucel (hydroxypropylcellulose) (HPC)) was 87 % of control and 96 % of control and the T/C (dose: 200.0 mg/kg/injection, schedule: Q01DX009 (ip), vehicle: Klucel (hydroxypropylcellulose) (HPC)) was 89 % of control and 91 % of control.
